# From US11793849B2, “Method of Chinese herbal medicine extract used for treating multiple diseases caused by drug resistant bacteria infection” (priority 2016, dated 2023)
# Read-outs that look alike come from different tables or passages of the source.
# Tested on: MDRAB
# Test: Checkerboard assay (combined-use MIC, FIC)
# Format: cell-based, Acinetobacter baumannii
# Details: for FIC, all strains / MIC50 of the antibiotic after combined use / MIC90 of the antibiotic after combined use / reduction of the antibiotic's MIC50 vs single use / reduction of the antibiotic's MIC90 vs single use / share of strains with FIC ≤ 0.5: 20 MDRABs; for MIC: Acinetobacter baumannii, EA=60% ethanol extract, read-out: single-use MIC
# In short: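 Checkerboard combinations of S20b and antibiotic run per NCCLS method against ESBL E. coli, MDR A. baumannii and MDR P. aeruginosa.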
# [1] = antibiotic with 60% ethanol extract
# [2] = antibiotic with 95% ethanol extract
# [3] = antibiotic with EA (10% ethanol extract)
# [4] = antibiotic with EA (water extract)
smiles,measurement,setting,value
"CC(C)(O/N=C(\C(=O)N[C@@H]1C(=O)N2C(C(=O)[O-])=C(C[n+]3ccccc3)CS[C@H]12)c1csc(N)n1)C(=O)O [CAZ, Ceftazidime]","FIC, all strains",[1],≤ 2
same,MIC50 of the antibiotic after combined use,[1],128 µg/mL
same,MIC90 of the antibiotic after combined use,[1],256 µg/mL
same,reduction of the antibiotic's MIC50 vs single use,[1],75%
same,reduction of the antibiotic's MIC90 vs single use,[1],50%
same,share of strains with FIC ≤ 0.5,[1],10%
same,"FIC, all strains",[2],≤ 2
same,MIC50 of the antibiotic after combined use,[2],128 µg/mL
same,MIC90 of the antibiotic after combined use,[2],256 µg/mL
same,reduction of the antibiotic's MIC50 vs single use,[2],75%
same,reduction of the antibiotic's MIC90 vs single use,[2],50%
same,share of strains with FIC ≤ 0.5,[2],10%
same,"FIC, all strains",[3],≤ 2
same,MIC50 of the antibiotic after combined use,[3],128 µg/mL
same,MIC90 of the antibiotic after combined use,[3],256 µg/mL
same,reduction of the antibiotic's MIC50 vs single use,[3],75%
same,reduction of the antibiotic's MIC90 vs single use,[3],50%
same,share of strains with FIC ≤ 0.5,[3],30%
same,"FIC, all strains",[4],≤ 2
same,MIC50 of the antibiotic after combined use,[4],128 µg/mL
same,MIC90 of the antibiotic after combined use,[4],256 µg/mL
same,reduction of the antibiotic's MIC50 vs single use,[4],75%
same,reduction of the antibiotic's MIC90 vs single use,[4],50%
same,share of strains with FIC ≤ 0.5,[4],20%
same,MIC,strain A1,128 µg/mL
same,MIC,strain A2,512 µg/mL
same,MIC,strain A3,512 µg/mL
same,MIC,strain A4,256 µg/mL
same,MIC,strain A5,64 µg/mL
same,MIC,strain A6,1020 µg/mL
same,MIC,strain A7,1020 µg/mL
same,MIC,strain A8,512 µg/mL
same,MIC,strain A9,512 µg/mL
same,MIC,strain A10,512 µg/mL
same,MIC,strain A11,512 µg/mL
same,MIC,strain A12,512 µg/mL
same,MIC,strain A13,256 µg/mL
same,MIC,strain A14,512 µg/mL
same,MIC,strain A15,256 µg/mL
same,MIC,strain A16,512 µg/mL
same,MIC,strain A17,256 µg/mL
same,MIC,strain A18,512 µg/mL
same,MIC,strain A19,256 µg/mL
same,MIC,strain A20,512 µg/mL
same,combined-use MIC,"strain A1, EA (10% ethanol extract) with CAZ",64 µg/mL
same,combined-use MIC,"strain A1, EA (60% ethanol extract) + CAZ combined",64 µg/mL
same,combined-use MIC,"strain A1, EA (P. clypearia 95% ethanol extract) combined with CAZ",64 µg/mL
same,combined-use MIC,"strain A1, EA (water extract) with CAZ",64 µg/mL
same,combined-use MIC,"strain A2, EA (10% ethanol extract) with CAZ",256 µg/mL
same,combined-use MIC,"strain A2, EA (60% ethanol extract) + CAZ combined",128 µg/mL
same,combined-use MIC,"strain A2, EA (P. clypearia 95% ethanol extract) combined with CAZ",128 µg/mL
same,combined-use MIC,"strain A2, EA (water extract) with CAZ",256 µg/mL
same,combined-use MIC,"strain A3, EA (10% ethanol extract) with CAZ",256 µg/mL
same,combined-use MIC,"strain A3, EA (60% ethanol extract) + CAZ combined",128 µg/mL
same,combined-use MIC,"strain A3, EA (P. clypearia 95% ethanol extract) combined with CAZ",128 µg/mL
same,combined-use MIC,"strain A3, EA (water extract) with CAZ",256 µg/mL
same,combined-use MIC,"strain A4, EA (10% ethanol extract) with CAZ",64 µg/mL
same,combined-use MIC,"strain A4, EA (60% ethanol extract) + CAZ combined",64 µg/mL
same,combined-use MIC,"strain A4, EA (P. clypearia 95% ethanol extract) combined with CAZ",64 µg/mL
same,combined-use MIC,"strain A4, EA (water extract) with CAZ",32 µg/mL
same,combined-use MIC,"strain A5, EA (10% ethanol extract) with CAZ",32 µg/mL
same,combined-use MIC,"strain A5, EA (60% ethanol extract) + CAZ combined",32 µg/mL
same,combined-use MIC,"strain A5, EA (P. clypearia 95% ethanol extract) combined with CAZ",32 µg/mL
same,combined-use MIC,"strain A5, EA (water extract) with CAZ",32 µg/mL
same,combined-use MIC,"strain A6, EA (10% ethanol extract) with CAZ",512 µg/mL
same,combined-use MIC,"strain A6, EA (60% ethanol extract) + CAZ combined",512 µg/mL
same,combined-use MIC,"strain A6, EA (P. clypearia 95% ethanol extract) combined with CAZ",512 µg/mL
same,combined-use MIC,"strain A6, EA (water extract) with CAZ",512 µg/mL
same,combined-use MIC,"strain A7, EA (10% ethanol extract) with CAZ",512 µg/mL
same,combined-use MIC,"strain A7, EA (60% ethanol extract) + CAZ combined",256 µg/mL
same,combined-use MIC,"strain A7, EA (P. clypearia 95% ethanol extract) combined with CAZ",256 µg/mL
same,combined-use MIC,"strain A7, EA (water extract) with CAZ",512 µg/mL
same,combined-use MIC,"strain A8, EA (10% ethanol extract) with CAZ",256 µg/mL
same,combined-use MIC,"strain A8, EA (60% ethanol extract) + CAZ combined",256 µg/mL
same,combined-use MIC,"strain A8, EA (P. clypearia 95% ethanol extract) combined with CAZ",256 µg/mL
same,combined-use MIC,"strain A8, EA (water extract) with CAZ",256 µg/mL
same,combined-use MIC,"strain A9, EA (10% ethanol extract) with CAZ",128 µg/mL
same,combined-use MIC,"strain A9, EA (60% ethanol extract) + CAZ combined",64 µg/mL
same,combined-use MIC,"strain A9, EA (P. clypearia 95% ethanol extract) combined with CAZ",256 µg/mL
same,combined-use MIC,"strain A9, EA (water extract) with CAZ",64 µg/mL
same,combined-use MIC,"strain A10, EA (10% ethanol extract) with CAZ",256 µg/mL
same,combined-use MIC,"strain A10, EA (60% ethanol extract) + CAZ combined",128 µg/mL
same,combined-use MIC,"strain A10, EA (P. clypearia 95% ethanol extract) combined with CAZ",256 µg/mL
same,combined-use MIC,"strain A10, EA (water extract) with CAZ",256 µg/mL
same,combined-use MIC,"strain A11, EA (10% ethanol extract) with CAZ",128 µg/mL
same,combined-use MIC,"strain A11, EA (60% ethanol extract) + CAZ combined",64 µg/mL
same,combined-use MIC,"strain A11, EA (P. clypearia 95% ethanol extract) combined with CAZ",64 µg/mL
same,combined-use MIC,"strain A11, EA (water extract) with CAZ",256 µg/mL
same,combined-use MIC,"strain A12, EA (10% ethanol extract) with CAZ",128 µg/mL
same,combined-use MIC,"strain A12, EA (60% ethanol extract) + CAZ combined",128 µg/mL
same,combined-use MIC,"strain A12, EA (P. clypearia 95% ethanol extract) combined with CAZ",128 µg/mL
same,combined-use MIC,"strain A12, EA (water extract) with CAZ",128 µg/mL
same,combined-use MIC,"strain A13, EA (10% ethanol extract) with CAZ",128 µg/mL
same,combined-use MIC,"strain A13, EA (60% ethanol extract) + CAZ combined",128 µg/mL
same,combined-use MIC,"strain A13, EA (P. clypearia 95% ethanol extract) combined with CAZ",128 µg/mL
same,combined-use MIC,"strain A13, EA (water extract) with CAZ",128 µg/mL
same,combined-use MIC,"strain A14, EA (10% ethanol extract) with CAZ",64 µg/mL
same,combined-use MIC,"strain A14, EA (60% ethanol extract) + CAZ combined",256 µg/mL
same,combined-use MIC,"strain A14, EA (P. clypearia 95% ethanol extract) combined with CAZ",256 µg/mL
same,combined-use MIC,"strain A14, EA (water extract) with CAZ",64 µg/mL
same,combined-use MIC,"strain A15, EA (10% ethanol extract) with CAZ",128 µg/mL
same,combined-use MIC,"strain A15, EA (60% ethanol extract) + CAZ combined",128 µg/mL
same,combined-use MIC,"strain A15, EA (P. clypearia 95% ethanol extract) combined with CAZ",128 µg/mL
same,combined-use MIC,"strain A15, EA (water extract) with CAZ",128 µg/mL
same,combined-use MIC,"strain A16, EA (10% ethanol extract) with CAZ",128 µg/mL
same,combined-use MIC,"strain A16, EA (60% ethanol extract) + CAZ combined",128 µg/mL
same,combined-use MIC,"strain A16, EA (P. clypearia 95% ethanol extract) combined with CAZ",256 µg/mL
same,combined-use MIC,"strain A16, EA (water extract) with CAZ",64 µg/mL
same,combined-use MIC,"strain A17, EA (10% ethanol extract) with CAZ",64 µg/mL
same,combined-use MIC,"strain A17, EA (60% ethanol extract) + CAZ combined",128 µg/mL
same,combined-use MIC,"strain A17, EA (P. clypearia 95% ethanol extract) combined with CAZ",128 µg/mL
same,combined-use MIC,"strain A17, EA (water extract) with CAZ",32 µg/mL
same,combined-use MIC,"strain A18, EA (10% ethanol extract) with CAZ",256 µg/mL
same,combined-use MIC,"strain A18, EA (60% ethanol extract) + CAZ combined",128 µg/mL
same,combined-use MIC,"strain A18, EA (P. clypearia 95% ethanol extract) combined with CAZ",128 µg/mL
same,combined-use MIC,"strain A18, EA (water extract) with CAZ",256 µg/mL
same,combined-use MIC,"strain A19, EA (10% ethanol extract) with CAZ",64 µg/mL
same,combined-use MIC,"strain A19, EA (60% ethanol extract) + CAZ combined",128 µg/mL
same,combined-use MIC,"strain A19, EA (P. clypearia 95% ethanol extract) combined with CAZ",128 µg/mL
same,combined-use MIC,"strain A19, EA (water extract) with CAZ",128 µg/mL
same,combined-use MIC,"strain A20, EA (10% ethanol extract) with CAZ",128 µg/mL
same,combined-use MIC,"strain A20, EA (60% ethanol extract) + CAZ combined",256 µg/mL
same,combined-use MIC,"strain A20, EA (P. clypearia 95% ethanol extract) combined with CAZ",256 µg/mL
same,combined-use MIC,"strain A20, EA (water extract) with CAZ",64 µg/mL
